Measured values reported in patent US10519152B2, “Compounds and their use in treating cancer” (AstraZeneca AB, priority 2017, dated 2019).
Structures can show the parent of a compound that is named as a salt.

Molecular target: T1, Estrogen Receptor (ERα) in MCF-7 human ductal carcinoma breast cell line (Homo sapiens, UniProt P03372)
T1 construct: endogenous in cells; host or cells: MCF-7
T1 sequence (P03372 1-595): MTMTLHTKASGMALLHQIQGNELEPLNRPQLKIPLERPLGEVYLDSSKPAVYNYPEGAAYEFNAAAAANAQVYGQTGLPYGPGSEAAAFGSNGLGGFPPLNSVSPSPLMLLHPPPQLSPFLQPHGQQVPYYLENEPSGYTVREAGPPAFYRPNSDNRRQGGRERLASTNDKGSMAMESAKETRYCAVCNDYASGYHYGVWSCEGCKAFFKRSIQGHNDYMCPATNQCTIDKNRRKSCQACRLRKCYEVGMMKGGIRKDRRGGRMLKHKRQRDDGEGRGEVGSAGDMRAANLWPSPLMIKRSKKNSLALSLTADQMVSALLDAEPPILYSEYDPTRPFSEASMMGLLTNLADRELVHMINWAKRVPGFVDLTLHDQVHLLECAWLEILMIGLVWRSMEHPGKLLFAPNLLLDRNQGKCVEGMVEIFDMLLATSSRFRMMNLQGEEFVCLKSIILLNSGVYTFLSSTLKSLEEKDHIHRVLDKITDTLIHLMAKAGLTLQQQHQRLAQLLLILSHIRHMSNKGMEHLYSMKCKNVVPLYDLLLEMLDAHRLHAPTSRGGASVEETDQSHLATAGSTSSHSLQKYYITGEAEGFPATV
Assay: MCF-7 ER degradation assay (cell based immuno-fluorescence)
Conditions: MCF-7 cells; for ER degradation ≥ 90% at 0.3 μM: ER degradation by fulvestrant at 0.3 μM is defined as 100%; for DC50: 18-22 hours incubation, 50% reduction of ERα expression, single experiment or average of two or more, read-out: MCF-7 ER degradation IC50
Method in brief: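 MCF-7 human ductal carcinoma breast cells were seeded at 3.75×10^4 cells per mL (40 μL per well) in 384 well plates with phenol red free DMEM containing 2 mM L-Glutamine and 5% (v/v) Charcoal/Dextran treated foetal calf serum. After overnight culture, compounds were acoustically dispensed, incubated 18-22 hours, then cells were formaldehyde-fixed and immunostained for ERα.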

SMILES | ER degradation ≥ 90% at 0.3 μM | DC50 [pM]
Cc1ncsc1-c1ccc(CNC(=O)[C@@H]2C[C@@H](O)CN2C(=O)[C@@H](NC(=O)COCCOCCOCCCNC(=O)c2cc(F)c([C@@H]3c4[nH]c5ccccc5c4C[C@@H](C)N3CC(C)(C)F)c(F)c2)C(C)(C)C)cc1 [Example 84, (2S,4R)-1-((S)-16-(tert-Butyl)-1-(3,5-difluoro-4-((1R,3R)-2-(2-fluoro-2-methylpropyl)-3-methyl-2,3,4,9-tetrahydro-1H-pyrido[3,4-b]indol-1-yl)phenyl)-1,14-dioxo-6,9,12-trioxa-2,15-diazaheptadecan-17-oyl)-4-hydroxy-N-(4-(4-methylthiazol-5-yl)benzyl)pyrrolidine-2-carboxamide] | •• | 700
Cc1ncsc1-c1ccc(CNC(=O)[C@@H]2C[C@@H](O)CN2C(=O)[C@@H](NC(=O)COCc2ccc(COc3cc(F)c([C@@H]4c5[nH]c6ccccc6c5C[C@@H](C)N4CC(C)(C)F)c(F)c3)nc2)C(C)(C)C)cc1 [Example 85, (2S,4R)-1-((S)-2-(2-((6-((3,5-difluoro-4-((1R,3R)-2-(2-fluoro-2-methylpropyl)-3-methyl-2,3,4,9-tetrahydro-1H-pyrido[3,4-b]indol-1-yl)phenoxy)methyl)pyridin-3-yl)methoxy)acetamido)-3,3-dimethylbutanoyl)-4-hydroxy-N-(4-(4-methylthiazol-5-yl)benzyl)pyrrolidine-2-carboxamide] | •• | 600
Cc1ncsc1-c1ccc(CNC(=O)[C@@H]2C[C@@H](O)CN2C(=O)[C@@H](NC(=O)COCc2ccc(COc3cc(F)c([C@@H]4c5[nH]c6ccccc6c5C[C@@H](C)N4CC(C)(C)F)c(F)c3)cn2)C(C)(C)C)cc1 [Example 86, (2S,4R)-1-((S)-2-(2-((5-((3,5-Difluoro-4-((1R,3R)-2-(2-fluoro-2-methylpropyl)-3-methyl-2,3,4,9-tetrahydro-1H-pyrido[3,4-b]indol-1-yl)phenoxy)methyl)pyridin-2-yl)methoxy)acetamido)-3,3-dimethylbutanoyl)-4-hydroxy-N-(4-(4-methylthiazol-5-yl)benzyl)pyrrolidine-2-carboxamide] | •• | 600
Cc1ncsc1-c1ccc(CNC(=O)[C@@H]2C[C@@H](O)CN2C(=O)[C@@H](NC(=O)COCCOCCOCCNC(=O)c2cc(F)c([C@@H]3c4[nH]c5ccccc5c4C[C@@H](C)N3CC(C)(C)F)c(F)c2)C(C)(C)C)cc1 [Example 91, (2S,4R)-1-((S)-15-(tert-Butyl)-1-(3,5-difluoro-4-((1R,3R)-2-(2-fluoro-2-methylpropyl)-3-methyl-2,3,4,9-tetrahydro-1H-pyrido[3,4-b]indol-1-yl)phenyl)-1,13-dioxo-5,8,11-trioxa-2,14-diazahexadecan-16-oyl)-4-hydroxy-N-(4-(4-methylthiazol-5-yl)benzyl)pyrrolidine-2-carboxamide] | •• | 300
Cc1ncsc1-c1ccc(CNC(=O)[C@@H]2C[C@@H](O)CN2C(=O)[C@@H](NC(=O)COCCCCOCCCOc2cc(F)c([C@@H]3c4[nH]c5ccccc5c4C[C@@H](C)N3CC(C)(C)F)c(F)c2)C(C)(C)C)cc1 [Example 93] | • | 900
Cc1ncsc1-c1ccc(CNC(=O)[C@@H]2C[C@@H](O)CN2C(=O)[C@@H](NC(=O)COCCCOCCOc2cc(F)c([C@@H]3c4[nH]c5ccccc5c4C[C@@H](C)N3CC(F)(F)F)c(F)c2)C(C)(C)C)cc1 [Example 94, (2S,4R)-1-((S)-2-(2-(3-(2-(3,5-Difluoro-4-((1R,3R)-3-methyl-2-(2,2,2-trifluoroethyl)-2,3,4,9-tetrahydro-1H-pyrido[3,4-b]indol-1-yl)phenoxy)ethoxy)propoxy)acetamido)-3,3-dimethylbutanoyl)-4-hydroxy-N-(4-(4-methylthiazol-5-yl)benzyl)pyrrolidine-2-carboxamide] | • | 600
Cc1ncsc1-c1ccc(CNC(=O)[C@@H]2C[C@@H](O)CN2C(=O)[C@@H](NC(=O)COCCOCCOCCOc2cc(F)c([C@@H]3c4[nH]c5ccccc5c4C[C@@H](C)N3CC(F)(F)F)c(F)c2)C(C)(C)C)cc1 [Example 95, (2S,4R)-1-((S)-2-(tert-Butyl)-14-(3,5-difluoro-4-((1R,3R)-3-methyl-2-(2,2,2-trifluoroethyl)-2,3,4,9-tetrahydro-1H-pyrido[3,4-b]indol-1-yl)phenoxy)-4-oxo-6,9,12-trioxa-3-azatetradecanoyl)-4-hydroxy-N-(4-(4-methylthiazol-5-yl)benzyl)pyrrolidine-2-carboxamide] | •• | 400
Cc1ncsc1-c1ccc(CNC(=O)[C@@H]2C[C@@H](O)CN2C(=O)[C@@H](NC(=O)COCCCCCOc2cc(F)c([C@@H]3c4[nH]c5ccccc5c4C[C@@H](C)N3CC(F)(F)F)c(F)c2)C(C)(C)C)cc1 [Example 96] | • | 1300
Cc1ncsc1-c1ccc(CNC(=O)[C@@H]2C[C@@H](O)CN2C(=O)[C@@H](NC(=O)COCCOCCCCCOc2cc(F)c([C@@H]3c4[nH]c5ccccc5c4C[C@@H](C)N3CC(C)(C)F)c(F)c2)C(C)(C)C)cc1 [Example 97, (2S,4R)-1-((S)-2-(2-(2-((5-(3,5-Difluoro-4-((1R,3R)-2-(2-fluoro-2-methylpropyl)-3-methyl-2,3,4,9-tetrahydro-1H-pyrido[3,4-b]indol-1-yl)phenoxy)pentyl)oxy)ethoxy)acetamido)-3,3-dimethylbutanoyl)-4-hydroxy-N-(4-(4-methylthiazol-5-yl)benzyl)pyrrolidine-2-carboxamide] | •• | 800
CC[C@H](C)[C@H](N)C(=O)O[C@@H]1C[C@@H](C(=O)NCc2ccc(-c3scnc3C)cc2)N(C(=O)[C@@H](NC(=O)COCCOCCOCCOc2cc(F)c([C@@H]3c4[nH]c5ccccc5c4C[C@@H](C)N3CC(C)(C)F)c(F)c2)C(C)(C)C)C1 [Example 99, (3R,5S)-1-((S)-2-(2-(2-(2-(2-(3,5-Difluoro-4-((1R,3R)-2-(2-fluoro-2-methylpropyl)-3-methyl-2,3,4,9-tetrahydro-1H-pyrido[3,4-b]indol-1-yl)phenoxy)ethoxy)ethoxy)ethoxy)acetamido)-3,3-dimethylbutanoyl)-5-((4-(4-methylthiazol-5-yl)benzyl)carbamoyl)pyrrolidin-3-yl L-isoleucinate Formate] | • | 1600
Cc1ncsc1-c1ccc(CNC(=O)[C@@H]2C[C@@H](OC(=O)[C@H](C)NC(=O)[C@@H](N)C(C)C)CN2C(=O)[C@@H](NC(=O)COCCOCCOCCOc2cc(F)c([C@@H]3c4[nH]c5ccccc5c4C[C@@H](C)N3CC(C)(C)F)c(F)c2)C(C)(C)C)cc1 [Example 100, (3R,5S)-1-((S)-2-(2-(2-(2-(2-(3,5-Difluoro-4-((1R,3R)-2-(2-fluoro-2-methylpropyl)-3-methyl-2,3,4,9-tetrahydro-1H-pyrido[3,4-b]indol-1-yl)phenoxy)ethoxy)ethoxy)ethoxy)acetamido)-3,3-dimethylbutanoyl)-5-((4-(4-methylthiazol-5-yl)benzyl)carbamoyl)pyrrolidin-3-yl L-valyl-L-alaninate Formate] | •• | 400
